Results as given in patent publication US12435066B2, “Substituted tricyclic compounds” (LUPIN LIMITED, priority 2019, dated 2025).

Columns and labels:
hSOS1 and hKRASG12C = target: T1, hSOS1 and hKRASG12C (Homo sapiens, UniProt Q07889); assay: biochemical
T1 sequence (Q07889 564-1049): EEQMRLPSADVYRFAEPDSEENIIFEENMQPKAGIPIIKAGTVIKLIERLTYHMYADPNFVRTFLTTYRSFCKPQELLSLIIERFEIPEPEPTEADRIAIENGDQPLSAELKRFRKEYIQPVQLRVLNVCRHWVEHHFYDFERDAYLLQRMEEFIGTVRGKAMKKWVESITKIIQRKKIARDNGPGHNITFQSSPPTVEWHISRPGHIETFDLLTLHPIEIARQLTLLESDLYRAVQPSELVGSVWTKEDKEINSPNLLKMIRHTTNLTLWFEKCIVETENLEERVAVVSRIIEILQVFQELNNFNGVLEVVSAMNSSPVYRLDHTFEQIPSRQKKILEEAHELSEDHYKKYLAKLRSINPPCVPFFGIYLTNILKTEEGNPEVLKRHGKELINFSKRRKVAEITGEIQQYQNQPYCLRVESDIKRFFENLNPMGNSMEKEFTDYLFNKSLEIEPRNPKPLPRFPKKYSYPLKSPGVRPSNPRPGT
Protocol: Interaction assay was conducted to evaluate the ability of the compounds to disrupt the protein-protein interactions between hSOS1 and hKRASG12C. Inhibitory effect of compounds on GST-hSOS1, 564-1049aa expressed and purified in-house and HIS-hKRASG12C (R06-32DH, SignalChem) interaction was assessed using HTRF detection technology in biochemical assay. Compounds were pre-incubated with 10-50 nM working solution of hSOS1 per well of a 384 well plate (Perkin Elmer, Cat #6007290) for 10 min at 20° C. in the assay buffer containing 5 mM HEPES, pH 7.4, 150 mM NaCl, 10 mM EDTA, 1 mM DTT, 0.05% BSA fraction V and 0.0025% Igepal. Reaction was initiated by adding 100-300 nM working solution of hKRASG12C in assay buffer. Total assay volume was 15 μL. Reaction was continued for 30-60 min at 20° C. Then detection solution containing MAb Anti-GST-d2 (#61GSTDLA, Cisbio BioAssays) and MAb Anti-HIS-Tb (#61HISTLA, Cisbio BioAssays), all prepared in HTRF detection buffer (#61DB10RDF, Cisbio BioAssays) was added and further incubated for 30-60 min at 20° C. HTRF signal was recorded in PHERAStar microplate reader. Ratio of signal obtained at 665 nm and 620 nm was used to compute the percent inhibition of compound utilizing the following formula:
Positive control=hSOS1+hKRASG12C+MAb Anti-GST-d2+Mab Anti-HIS-Tb Negative control=hKRASG12C+MAb Anti-GST-d2+MAb Anti-HIS-Tb

[1] = target: T2, hSOS1 mediated nucleotide exchange on hKRASG12C (Homo sapiens, UniProt Q07889); assay: biochemical
T2 sequence (Q07889 564-1049): T1 sequence (Q07889 564-1049)
Protocol: Example-127: Guanine Nucleotide Exchange Assay (GNEA)
GNEA assay was conducted to evaluate the effects of compounds on the nucleotide exchange on hKRASG12C mediated by hSOS1. Inhibitory effect of compounds on HIS-hSOS1, 564-1049aa mediated GTP loading onto GST-hKRASG12C, 1-169aa both expressed and purified in-house was assessed using HTRF detection technology in biochemical assay. Compounds were pre-incubated with hSOS1 working solution containing 10-50 nM hSOS1 and 200 nM EDA-GTP-DY-647P1 (Custom manufactured, Jena Biosciences) per well of a 384 well plate (Perkin Elmer, Cat #6007290) for 10 min at 20° C. in the assay buffer containing 10 mM HEPES, pH 7.4, 150 mM NaCl, 5 mM MgCl2, 1 mM DTT, 0.05% BSA fraction V and 0.0025% Igepal. Reaction was initiated by adding working solution of hKRASG12C containing 25-125 nM hKRASG12C and MAb Anti-GST-Tb (#61GSTTLA, Cisbio BioAssays) in assay buffer. Total assay volume was 15 μL. Reaction was continued for 30-60 min at 20° C. HTRF signal was recorded in PHERAStar microplate reader. Ratio of signal obtained at 665 nm and 620 nm was used to compute the percent inhibition of compound as follows.
Where, Positive control=hSOS1+EDA-GTP-DY-647P1+hKRASG12C+MAb Anti-GST-Tb Negative control=EDA-GTP-DY-647P1+hKRASG12C+MAb Anti-GST-Tb

pERK in DLD1 cells = assay: ERK phosphorylation assay after EGF stimulation; format: cell-based; settings: Homo sapiens, DLD-1, compound 2 h, 200 ng/ml hEGF 5 minutes, alphascreen pERK, read-out: ERK phosphorylation inhibition IC50
Protocol: Example-128: ERK Phosphorylation Assay Protocol
Compounds were tested for their ability to inhibit pERK after EGF stimulation in DLD1 cells. Cells were seeded at 0.2 million cells per well in 96 well cell binding tissue culture plate in 100 μL complete media and were allowed to settle overnight (16 to 20 h). On the following day, cells were treated with various concentrations of test compounds for 2 h followed by stimulation with 200 ng/ml hEGF (diluted in PBS) for 5 minutes. Cells were then washed once with PBS and lysed in freshly prepared lysis buffer (provided with alphascreen surefire ERK1/2 p-T202/Y204 assay kit, cat no: TGRESB10K, Perkin Elmer). Lysis was carried out in plate shaker for 10-15 mins. Lysate was transferred to […] white opti-plate (Perkin Elmer) and alphascreen for pERK was carried out as per manufacturer's instructions. Plate was read after 2 h incubation in plate shaker at […] 300 RPM, 25-28° C.

Structure (SMILES) | IC50 (hSOS1 and hKRASG12C) [nM] | IC50 [1] [nM] | IC50 (pERK in DLD1 cells) [nM]
Cc1nc(N[C@H](C)c2cccc(C(F)(F)[C@@H](C)O)c2F)c2cc(N3CC4(COC4)C3)c3c(c2n1)CCC3 (single isomer, unassigned) [Compound 73b] | 1 to 10 | 1 to 30 | 1 to 200
Cc1nc(N[C@H](C)c2cc(N)cc(C(F)(F)F)c2)c2cc(N3CCOCC3)c3c(c2n1)CCC3 [Compound 2, (R)—N-(1-(3-amino-5-(trifluoromethyl)phenyl)ethyl)-2-methyl-6-morpholino-8,9-dihydro-7H-cyclopenta[h]quinazolin-4-amine] | 1 to 10 | 1 to 30 | 1 to 200
Cc1nc(N[C@H](C)c2cccc(C(F)(F)C(C)(C)O)c2F)c2cc(N3CC4(COC4)C3)c3c(c2n1)CCC3 [Compound 10, (R)-1,1-difluoro-1-(2-fluoro-3-(1-((2-methyl-6-(2-oxa-6-azaspiro[3.3]heptan-6-yl)-8,9-dihydro-7H-cyclopenta[h]quinazolin-4-yl)amino)ethyl)phenyl)-2-methylpropan-2-ol] | 1 to 10 | 1 to 30 | 1 to 200
Cc1nc(N[C@H](C)c2cccc(C(F)(F)CO)c2F)c2cc(N3CC[C@H](O)C3)c3c(c2n1)CCC3 [Compound 22, (S)-1-(4-(((R)-1-(3-(1,1-difluoro-2-hydroxyethyl)-2-fluorophenyl)ethyl)amino)-2-methyl-8,9-dihydro-7H-cyclopenta[h]quinazolin-6-yl)pyrrolidin-3-ol] | 1 to 10 | 1 to 30 | 1 to 200
Cc1nc(N[C@H](C)c2cccc(C(F)(F)CO)c2F)c2cc(N3CC4(COC4)C3)c3c(c2n1)CCC3 [Compound 23, (R)-2,2-difluoro-2-(2-fluoro-3-(1-((2-methyl-6-(2-oxa-6-azaspiro[3.3]heptan-6-yl)-8,9-dihydro-7H-cyclopenta[h]quinazolin-4-yl)amino)ethyl)phenyl)ethan-1-ol] | 1 to 10 | 1 to 30 | 1 to 200
COCC(F)(F)c1cccc([C@@H](C)Nc2nc(C)nc3c4c(c(N5CC6(COC6)C5)cc23)CCC4)c1F [Compound 24, (R)—N-(1-(3-(1,1-difluoro-2-methoxyethyl)-2-fluorophenyl)ethyl)-2-methyl-6-(2-oxa-6-azaspiro[3.3]heptan-6-yl)-8,9-dihydro-7H-cyclopenta[h]quinazolin-4-amine] | 1 to 10 | 31 to 70 | 1 to 200
COCC1CN(c2cc3c(N[C@H](C)c4cc(N)cc(C(F)(F)F)c4)nc(C)nc3c3c2CCC3)C1 [Compound 26, (R)—N-(1-(3-amino-5-(trifluoromethyl)phenyl)ethyl)-6-(3-(methoxymethyl)azetidin-1-yl)-2-methyl-8,9-dihydro-7H-cyclopenta[h]quinazolin-4-amine] | 1 to 10 | 31 to 70 | 1 to 200
Cc1nc(N[C@H](C)c2cccc(C(F)(F)CO)c2F)c2cc(N3CC[C@@H](O)C3)c3c(c2n1)CCC3 [Compound 30, (R)-1-(4-(((R)-1-(3-(1,1-difluoro-2-hydroxyethyl)-2-fluorophenyl)ethyl)amino)-2-methyl-8,9-dihydro-7H-cyclopenta[h]quinazolin-6-yl)pyrrolidin-3-ol] | 1 to 10 | 1 to 30 | 1 to 200
Cc1nc(N[C@H](C)c2cc(N)cc(C(F)(F)F)c2)c2cc(N3CC4(COC4)C3)c3c(c2n1)CCC3 [Compound 33, (R)—N-(1-(3-amino-5-(trifluoromethyl)phenyl)ethyl)-2-methyl-6-(2-oxa-6-azaspiro[3.3]heptan-6-yl)-8,9-dihydro-7H-cyclopenta[h]quinazolin-4-amine] | 1 to 10 | 1 to 30 | 1 to 200
COC[C@H]1CN(c2cc3c(N[C@H](C)c4cccc(C(F)(F)CO)c4F)nc(C)nc3c3c2CCC3)CCO1 [Compound 35, 2,2-difluoro-2-(2-fluoro-3-((R)-1-((6-((R)-2-(methoxymethyl)morpholino)-2-methyl-8,9-dihydro-7H-cyclopenta[h]quinazolin-4-yl)amino)ethyl)phenyl)ethan-1-ol] | 1 to 10 | 1 to 30 | 1 to 200
COCC1(O)CCN(c2cc3c(N[C@H](C)c4cc(N)cc(C(F)(F)F)c4)nc(C)nc3c3c2CCC3)CC1 [Compound 47, (R)-1-(4-((1-(3-amino-5-(trifluoromethyl)phenyl)ethyl)amino)-2-methyl-8,9-dihydro-7H-cyclopenta[h]quinazolin-6-yl)-4-(methoxymethyl)piperidin-4-ol] | 1 to 10 | 1 to 30 | 1 to 200
Cc1nc(N[C@H](C)c2cc(N)cc(C(F)(F)F)c2)c2cc(N3CCC(O)CC3)c3c(c2n1)CCC3 [Compound 48, (R)-1-(4-((1-(3-amino-5-(trifluoromethyl)phenyl)ethyl)amino)-2-methyl-8,9-dihydro-7H-cyclopenta[h]quinazolin-6-yl)piperidin-4-ol] | 1 to 10 | 1 to 30 | 1 to 200
Cc1nc(N[C@H](C)c2cc(N)cc(C(F)(F)F)c2)c2cc(N3CCC(CO)CC3)c3c(c2n1)CCC3 [Compound 49, (R)-(1-(4-((1-(3-amino-5-(trifluoromethyl)phenyl)ethyl)amino)-2-methyl-8,9-dihydro-7H-cyclopenta[h]quinazolin-6-yl)piperidin-4-yl)methanol] | 1 to 10 | 1 to 30 | 1 to 200
Cc1nc(N[C@H](C)c2cc(N)cc(C(F)(F)F)c2)c2cc(N3CCC(C)(O)CC3)c3c(c2n1)CCC3 [Compound 50, (R)-1-(4-((1-(3-amino-5-(trifluoromethyl)phenyl)ethyl)amino)-2-methyl-8,9-dihydro-7H-cyclopenta[h]quinazolin-6-yl)-4-methylpiperidin-4-ol] | 1 to 10 | 1 to 30 | 1 to 200
Cc1nc(N[C@H](C)c2cc(N)cc(C(F)(F)F)c2)c2cc(N3CCC(C(C)(C)O)CC3)c3c(c2n1)CCC3 [Compound 51, (R)-2-(1-(4-((1-(3-amino-5-(trifluoromethyl)phenyl)ethyl)amino)-2-methyl-8,9-dihydro-7H-cyclopenta[h]quinazolin-6-yl)piperidin-4-yl)propan-2-ol] | 1 to 10 | 1 to 30 | 1 to 200
Cc1nc(N[C@H](C)c2cc(N)cc(C(F)(F)F)c2)c2cc(N3CC4(CC(O)C4)C3)c3c(c2n1)CCC3 [Compound 52, (R)-2-(4-((1-(3-amino-5-(trifluoromethyl)phenyl)ethyl)amino)-2-methyl-8,9-dihydro-7H-cyclopenta[h]quinazolin-6-yl)-2-azaspiro[3.3]heptan-6-ol] | 1 to 10 | 1 to 30 | 1 to 200
Cc1nc(N[C@H](C)c2cc(N)cc(C(F)(F)F)c2)c2cc(N3CCNC(=O)C3)c3c(c2n1)CCC3 [Compound 53, (R)-4-(4-((1-(3-amino-5-(trifluoromethyl)phenyl)ethyl)amino)-2-methyl-8,9-dihydro-7H-cyclopenta[h]quinazolin-6-yl)piperazin-2-one] | 1 to 10 | 1 to 30 | 1 to 200
COCC1CCN(c2cc3c(N[C@H](C)c4cc(N)cc(C(F)(F)F)c4)nc(C)nc3c3c2CCC3)CC1 [Compound 54, (R)—N-(1-(3-amino-5-(trifluoromethyl)phenyl)ethyl)-6-(4-(methoxymethyl)piperidin-1-yl)-2-methyl-8,9-dihydro-7H-cyclopenta[h]quinazolin-4-amine] | 11 to 20 | 31 to 70 | 1 to 200
Cc1nc(N[C@H](C)c2cc(N)cc(C(F)(F)F)c2)c2cc(N3CCN(C)C(=O)C3)c3c(c2n1)CCC3 [Compound 56, (R)-4-(4-((1-(3-amino-5-(trifluoromethyl)phenyl)ethyl)amino)-2-methyl-8,9-dihydro-7H-cyclopenta[h]quinazolin-6-yl)-1-methylpiperazin-2-one] | 1 to 10 | 1 to 30 | 1 to 200
COCC1CCN(c2cc3c(N[C@H](C)c4cccc(C(F)(F)C(C)(C)O)c4F)nc(C)nc3c3c2CCC3)CC1 [Compound 57, (R)-1,1-difluoro-1-(2-fluoro-3-(1-((6-(4-(methoxymethyl)piperidin-1-yl)-2-methyl-8,9-dihydro-7H-cyclopenta[h]quinazolin-4-yl)amino)ethyl)phenyl)-2-methylpropan-2-ol] | 1 to 10 | 1 to 30 | 1 to 200
